The values that follow come from US3985878A, “Anti-inflammatory and antirheumatic compounds and preparation” (priority 1974, dated 1976).

Data set [1] is described as follows: Pellets-induced granuloma test (cotton pellets). The following applies: rat. It is filed as in vivo, rat. How it is done: 1b. Pellets-induced granuloma test:
Another important test for the evaluation of an anti-inflammatory is that of cotton pellets. This consists of planting a sterile cotton pellet under the rat's back skin.
This pellet is left in situ for a week while the animals are treated daily with various doses of the drug being examined. Evaluation is effected by weighing the pellets taken at the given time and dried, comparing the weight of those of the treated animals with the checks.

The subject of data set [2] is fibroblast culture. Nature of the data set: Production of mucopolysaccharides from fibroblast culture in vitro. Type of data set: cell-based. How it is done: a. Tests in vitro: These tests consist of the cultivation in vitro, i.e., outside the organism, of tissue of the same embriological origin in relation to the osteoarticular. Upon the growth of this tissue there is then measured the activities of the various drugs. The units of measurement of these activities is the production of glucosaminoglicanes (mucopolysaccharides measured by the turbidimetric method).
The compounds which form the subject of this invention were evaluated according to this test and compared with known anti-inflammatories.

A short description of data set [3]: Osteolathyrism in the rabbit (aminoacetonitrile). Type of data set: in vivo. How it is done: B. Tests in vivo: Osteolathyrism in the rabbit.
Osteolathrism consists of inducing into young rabbits a dystrophy of the bone joint system, administering every day aminoacetonitrile by i.p. means, in the quantity of 100 mg/kg of body weight. With this treatment, in about 30 days, the following changes are shown in the rabbit:
Loss of weight (related to the checks physiologically treated), ptosis of the auricular pavilion, loss of fur, deformation of the front and rear limbs, deterioration of the general condition.
All this takes place because the aminoacetonitrile is a collagen tissue poison which changes the biochemical composition of the joint cartilages and the bones.
An evaluation of the therapeutic activity can be made either by biochemical evaluation, i.e. by measuring the quantity of aminosugars in these tissues, or by considering only the general symptoms, which are proportional to the diminution of the aminosugars.
In Table 5 this latter evaluation is reported, in which every symptom was evaluated by allotting it a number from 0 to 4, 4 indicating the maximum amount of damage and 0 indicating no damage.
On Table 5 there are given the results of treatment evaluated on the 25th day, comparing the groups treated only with a physiological solution, only with aminoacetonitrile, with aminoacetonitrile and CR 604, with aminoacetonitrile and Indometacin in the prescribed doses.
Each group consisted of 8 animals.

The nature of data set [4]: Irritant and ulceroid (gastrolesive) activity on the gastric mucosa. The following applies: rat, in vivo. How it is done:
4. Irritant and ulceroid activity on the gastric mucosa
The experimental evaluation of this activity was made on rats, by the method here reported:
The compound is administered orally to rats which have fasted for 12 hours, the animals being killed 4 hours after the administration.
Regarded as positive, i.e. with stomach damage, are those animals which have at least one haemorrhage point on the stomach wall.
By ED50 there is meant that dose of the drug which can […] in 50% of the animals treated, the formation of these haemorrhages.
In Table 6 there are compared CR 604 and Indometacin, since the latter is, amongst them all, the nearest to the anti-inflammatory activity values of CR 604.

The nature of data set [5]: Tolerance in animals, subacute and chronic. Type of data set: in vivo. The following applies: up to 6 months administration to animals, quantities greater than those recommended for human beings. The text has this: For these substances, and particularly for CR 604, tolerance tests were made, subacute and chronic, by up to 6 months administration to the animals.
Data set [6] relates to uropepsinogene. Type of data set: in vivo, human. The following applies: in vivo. The procedure:
(§1) Thus for example comparing CR 604 administered in capsules of 75 mg (6 per day), with Indometacin in capsules of 25 mg (6 per day), i.e. in approximately equimolecular doses on a group of 60 subjects treated (30 with CR 604 and 30 with Indometacin, one notes that (see Table 7):
Gastric secretion of pepsin is increased by agents which irritate and damage the gastric mucosa.

Data set [7] concerns urinary calcium. Type of data set: in vivo, human. Conditions: in vivo. How it is done:
as §1
c. […] Excretion of calcium is related to the destruction of the fibrils of the proteic bone matrix which thus also loses the calcium deposited upon it.
The administration of known anti-inflammatories brings about the lysis of these fibrils with loss of calcium.

Data set [8] can be described thus: Anti-inflammatory activity, paw test (Domenjoz test). It is filed as in vivo, rat. Conditions: rat, oral 1 hour before carragheen 1%; paws weighed after two hours; read-out: ED50 per os, acute anti-inflammatory activity (Domenjoz test). The procedure: 1a. Anti-inflammatory activity: this activity was measured by the paw test according to Doemnjoz, characterised in its carrying out by the following method:
To young rats of medium weight of 200 g there is administered by hypodermic injection into the right paw an aqueous suspension of carragheen at 1%, 1 hour after the oral administration of the drugs under investigation.
After two hours from the administration of the carragheen, the pawas are disjointed, weighed, and comparison is made between the injected paw, meanwhile swollen, and the paw not interfered with.
This evaluation is expressed both in mg/kg of animal weight and in micromoles/Kg of weight of the animal.

The nature of data set [9]: Analgesic activity, phenylquinone test. The following applies: rat, oral; read-out: ED50 per os, analgesic activity (phenylquinone test). Type of data set: in vivo, rat. The source says: 2. Analgesic activity: The analgesic activity of an anti-inflammatory can be examined traditionally by the phenylquinone method based on the fact that intra-peritoneal administration to a rat of an irritant substance such as phenylquinone induces vocal reactions ("squirring") in the animal.
From the number of these reactions one judges the pain sensitivity.

Data set [10] is classed as in vivo, human. Conditions: in vivo. How it is done: Thus for example comparing CR 604 administered in capsules of 75 mg (6 per day), with Indometacin in capsules of 25 mg (6 per day), i.e. in approximately equimolecular doses on a group of 60 subjects treated (30 with CR 604 and 30 with Indometacin, one notes that (see Table 7): […]
A short description of data set [11]: Solubility. Type of data set: physicochemical.
The mark [12] stands for this setting: score 0 (no damage) to 4 (maximum damage), 15 mg/kg/day i.p. + aminoacetonitrile 100 mg/kg/day, 25 days.

Molecules are shown by their SMILES. Values joined by “and” are separate entries in the source; they are usually repeats but may differ in a detail not shown here. Equal entries are not always repeated. Where two headings read alike, the source gives them in different places.

Consider `CCCN(CCC)C(=O)C(CCC(=O)OCCCN1CCN(CCOC(=O)Cc2c(C)n(C(=O)c3ccc(Cl)cc3)c3ccc(OC)cc23)CC1)NC(=O)c1ccccc1` (racemic) [CR 604, N'-2-[1-(p-chlorobenzoyl)-5-methoxy-2-methyl-3-indoleacetoxy]ethyl-N-3-(N-benzoyl-N', N'-di-n-propyl-DL-isoglutaminoyl)-oxypropyl-piperazine], for which the “anti-inflammatory activity (granuloma test), in words” value in data set [1] is listed as “high anti-inflammatory activity”. The “effect on growth and production of mucopolysaccharides, in words” value in [2] (in vitro culture of collagen tissue) is recorded as “does not harm”. Moreover, the “effect on aminoacetonitrile symptoms, in words” value in data set [3] (rabbit) is reported as “greatly modifies these toxic symptoms”. Besides, the “gastrolesive dose, in words” value in data set [4] (po) is “so high as to be of no practical importance, being roughly equal to a fatal dose”. Further, in [5], the “tolerance, subacute and chronic” value is given as “well tolerated without any special anatomical or functional lesion”. Besides, the “uropepsinogene in urine, in words” value in [6] is “diminishes in the urine”. Further, in data set [7], the “destruction (lysis) of fibrils of proteic bone matrix, in words” value is recorded as “does not induce this destruction or reduces it” and the “excretion of urinary calcium, in words” value is reported as “reduction in the excretion of urinary calcium”.
For the compound `CCCN(CCC)C(=O)C(CCC(=O)OCCCN1CCN(CCOC(=O)Cc2c(C)n(C(=O)c3ccc(Cl)cc3)c3ccc(OC)cc23)CC1)NC(=O)c1ccccc1` (racemic) [CR 604 (di-maleate), N'-2-[1-(p-chlorobenzoyl)-5-methoxy-2-methyl-3-indoleacetoxy]ethyl-N-3-(N-benzoyl-N', N'-di-n-propyl-DL-isoglutaminoyl)-oxypropyl-piperazine], the ED50 (in general, the dose at which the effect has come halfway, by size or by number of responders) in data set [8] was 11.5 µmol/kg and 12.3 mg/kg. Moreover, the ED50 in data set [1] (oral, daily for a week, read-out: ED50 per os, acute anti-inflammatory activity (granuloma test)) is 25.6 µmol/kg and 27.6 mg/kg. For the same compound, the ED50 in [9] was 5.3 µmol/kg and 5.72 mg/kg. Also, the activity at 6 µg/mL in [2] (Fibroblast, 240 h, 6 μg/ml of culture liquid, read-out: Mucopolysaccharide products at the tenth day of incubation) came to 108%. Moreover, in data set [3] (setting [12]), the “Deformed gait of back legs” value amounted to 0.6, the “Deformed gait of front legs” value is 0, the “General Condition of Animal” value is on record as 0.2 and the Loss of fur is listed as 0. Further, in [3] (setting [12]), the Loss of weight stood at 0 and the “Ptosis of auricular pavilion” value was 0.2. Besides, the TD50 at 4 h in [4] (oral, fasted 12 hours, killed 4 hours after administration, read-out: ED50 gastrolesive) was 330 µmol/kg. The TD50 at 4 h in data set [4] (po) is 355 mg/kg. In [10], the Epigastric pain was 0 % of patients in pain. In addition, the Uropepsinogene in [6] is on record as 216.3 equivalent mg of tyrosine per. In data set [7], the Urinary calcium was 132 mg/1000 cc of urine. Besides, in data set [11] (acetone), the solubility in acetone entry is given as “slightly soluble”. For the same compound, the solubility in ethanol entry in data set [11] (ethanol) is recorded as “slightly soluble”. Further, the solubility in methanol entry in data set [11] (methanol) is “more soluble”. Besides, the “solubility in water, in words” value in [11] (water) is “Insoluble”.
